Patent US11510931B2, “Compositions and methods for treating ophthalmic conditions” (MEDICON PHARMACEUTICALS, INC., priority 2016, dated 2022)

Key:
[1] = tested on: Staphylococcus aureus; test: Disk diffusion antimicrobial susceptibility with PS-impregnated antibiotic disks; type: cell-based; conditions: 24 h, mean ± SD
Description: Briefly, Staphylococcus aureus grown in culture was seeded evenly on Muller-Hinton II Agar plates (BD Diagnostic Systems) at the standard concentration of 2×10^8 colony-forming units per mL. Antibiotic antimicrobial susceptibility disks (Thermo Scientific Oxoid™) were impregnated with one of six concentrations of PS (0%, 1%, 2%, 3%, 6%, 9%); 10 μL of each was evenly dispensed on each disk. An additional control was disks with no PS and no vehicle. The growth of bacteria around each disk was monitored and the area of “no growth” around each disk was measured 24 h later.

[2] = tested on: cornea of New Zealand white rabbits; test: Corneal touch threshold (CTT), Cochet-Bonnet aesthesiometer; type: in vivo, rabbit; conditions: Lidocaine 1%
Description: The analgesic effect of PS was determined by measuring the corneal touch threshold (CTT) using the Luneau Cochet-Bonnet Aeshesiometer (Western Ophthalmics, Lynwood, Wash.), an adjustable nylon monofilament with a defined diameter, which is applied in different lengths to the center of the cornea. This device is generally described in Lima L, Lange R R, Turner-Giannico A, Montiani-Ferreira F. Evaluation of standardized endodontic paper point tear test in New Zealand white rabbits and comparison between corneal sensitivity followed tear tests. Vet Ophthalmol. 2015; 18 Suppl 1:119-24.
A stimulus produced by the filament that reaches the CTT induces a corneal reflex, consisting of prompt eyelid closure. The CTT is quantified as centimeter length of the filament necessary to cause the blink reflex.
The CTT is determined before (baseline) and at various time points after the application of the test compound (PS). PS was formulated either in β-cyclodextrin (42 or 8 mg/ml) or in a nanocarrier (19 mg/ml). The test drug was formulated in a nanocarrier by the emulsion and evaporation method (Vauthier C, Bouchemal K. Methods for the Preparation and Manufacture of Polymeric Nanoparticles. Pharmaceutical Research; 2009; 26:1025-1058). The formulated stable drug suspension consisted of polylactic acid and polyethylene glycol (PLLA(10k)-PEG(2k)); sodium cholate; and PS. The vehicle control was either β-cyclodextrin or the nanocarrier without PS. Commercially available lidocaine 1% was used as a positive control.
To each eye of adult New Zealand white rabbits was applied […] drops of PS or vehicle or lidocaine, with 5 minutes between each drop. The time of the last drop was taken as the 0 time.
The analgesic effect of PS was further examined on the surface of the eye by determining the corneal touch threshold (CTT) using the Luneau Cochet-Bonnet Aesthesiometer (Western Ophthalmics, Lynwood, Wash.) an adjustable nylon monofilament with a defined diameter, which is applied in different lengths to the center of the cornea.

[3] = antibiotic disk with PS 0% (vehicle only)

SMILES | Inhibition Zone [1, 3] [mm] | Inhibition Zone ([1]; antibiotic disk with PS 1%) [mm] | Inhibition Zone ([1]; antibiotic disk with PS 2%) [mm] | Inhibition Zone ([1]; antibiotic disk with PS 3%) [mm] | Inhibition Zone ([1]; antibiotic disk with PS 6%) [mm] | Inhibition Zone ([1]; antibiotic disk with PS 9%) [mm] | Corneal touch threshold (CTT) ([2]; 1 min) [centimeter] | Corneal touch threshold (CTT) ([2]; 5 min) [centimeter] | Corneal touch threshold (CTT) ([2]; 10 min) [centimeter] | Corneal touch threshold (CTT) ([2]; 20 min) [centimeter] | Corneal touch threshold (CTT) ([2]; 30 min) [centimeter] | Corneal touch threshold (CTT) ([2]; 45 min) [centimeter] | Corneal touch threshold (CTT) ([2]; 60 min) [centimeter] | Corneal touch threshold (CTT) ([2]; baseline) [centimeter]
O=C(O)c1cn(C2CC2)c2cc(N3CCNCC3)c(F)cc2c1=O [Ciprofloxacin] | 30.0 ± 0.0 | 30.3 ± 0.6 | 29.7 ± 0.6 | 29.3 ± 0.6 | 27.7 ± 0.4 | 29.7 ± 0.6 | – | – | – | – | – | – | – | –
C[C@H]1COc2c(N3CCN(C)CC3)c(F)cc3c(=O)c(C(=O)O)cn1c23 [Levofloxacin] | 32.3 ± 0.6 | 32.7 ± 0.6 | 32.0 ± 0.0 | 31.7 ± 0.6 | 32.3 ± 1.5 | 31.0 ± 1.0 | – | – | – | – | – | – | – | –
CCN(CC)CC(=O)Nc1c(C)cccc1C [Lidocaine, lidocaine, reference compound] | – | – | – | – | – | – | 1.5 ± 1.3 | 2.3 ± 1.5 | 3.1 ± 1.9 | 4.0 ± 1.3 | 5.8 ± 0.6 | 5.8 ± 0.6 | 6.0 ± 0.0 | 6.0 ± 0.0
